# In patent publication US20240025862A1, “SUBSTITUTED N-PHENYLURACILS AND SALTS THEREOF, AND USE THEREOF AS HERBICIDAL ACTIVE SUBSTANCES” (Bayer Aktiengesellschaft, priority 2020, published 2024):
# How the values were obtained:
# Type in all cases: in vivo
# [1] = test system: Oryza sativa (ORYSA); test: Post-emergence crop plant compatibility, greenhouse pot test (also comparative test C); settings: for Post-emergence action against ORYSA (crop plant compatibility): vs untreated controls
# Outline: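 Visual damage versus untreated plants (0% = like control, 100% = plants died) was scored about 3 weeks after a post-emergence spray in greenhouse pots. Treatment: one-leaf stage, WP or EC in water at 600 l/ha with 0.5% additive; a/b/c mark different dosages on the same crop.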
# [2] = test system: Alopecurus myosuroides (ALOMY); test: Post-emergence herbicidal action, greenhouse pot test (also comparative test C); settings: 20 g/ha, rated visually after about 3 weeks vs untreated controls, 100% = plants have died
# Outline: (§1)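 Green parts of one-leaf-stage plants are sprayed at 600 l/ha with formulated compound plus 0.5% additive, then kept under optimum greenhouse conditions for about 3 weeks. Damage is scored visually, where 100% means dead plants and 0% means no difference from controls.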
# [3] = test system: Setaria viridis (SETVI); test: as above; settings: for Post-emergence action against SETVI: 20 g/ha
# Outline: as §1
# [4] = test system: Echinochloa crus-galli (ECHCG); test: as above
# Outline: as §1
# [5] = test system: Matricaria inodora (MATIN); test: as above
# Outline: as §1
# [6] = test system: Zea mays (ZEAMX); test: Post-emergence crop plant compatibility, greenhouse pot test; settings: vs untreated controls
# Outline: (§2)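 Greenhouse pot test; post-emergence foliar spray at one-leaf stage, WP or EC in water + 0.5% additive, 600 l/ha. Visual rating after ~3 wk, % relative to untreated (0–100%).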
# [7] = test system: Triticum aestivum (TRZAS); test: as above; settings: vs untreated controls
# Outline: as §2
# [8] = test system: Veronica persica (VERPE); test: Post-emergence herbicidal action, greenhouse pot test
# Outline: (§3)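 Activity was scored by eye about 3 weeks after treatment against untreated plants, where 100% means dead plants and 0% means no difference. Plants at the one-leaf stage received a foliar spray of WP or EC formulations in water plus 0.5% additive (600 l/ha, up to 20 g/ha). Plants were grown in sandy loam pots in a greenhouse for 2–3 weeks before spraying.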
# [9] = test system: Viola tricolor (VIOTR); test: as above
# Outline: as §3
# [10] = test system: Polygonum convolvulus (POLCO); test: as above
# Outline: as §3
# [11] = test system: Amaranthus retroflexus (AMARE); test: as above; settings: rated visually after about 3 weeks vs untreated controls, 100% = plants have died
# Outline: as §3
# [12] = test system: Pharbitis purpurea (PHBPU); test: as above
# Outline: as §3
# [13] = test system: Abutilon theophrasti (ABUTH); test: as above; settings: rated visually after about 3 weeks vs untreated controls, 100% = plants have died
# Outline: as §3
smiles,measurement,setting,value
Cn1c(C(F)(F)F)cc(=O)n(-c2cc(Oc3cc(F)ccc3OCC(=O)OCC#N)c(Cl)cc2F)c1=O [I.23-176],Post-emergence action against ORYSA (crop plant compatibility),[1]; 1.25 g/ha,0%
same,Post-emergence action against ORYSA (crop plant compatibility),[1]; 5 g/ha,20%
same,Post-emergence action at 20 g/ha against ALOMY in %,[2],100%
same,Post-emergence action against SETVI,[3],100%
same,Post-emergence action against SETVI in %,[3]; dosage 1.25 g/ha,100%
same,Post-emergence action against SETVI in %,[3]; dosage 5 g/ha,100%
same,Post-emergence action against ECHCG in %,[4]; dosage 5 g/ha,100%
same,Post-emergence action against ECHCG in %,[4]; dosage 20 g/ha,100%
same,Post-emergence action against MATIN in %,[5]; dosage 20 g/ha,80%
same,Post-emergence action against ZEAMX (crop plant compatibility),[6]; 1.25 g/ha,20%
same,Post-emergence action against TRZAS (crop plant compatibility),[7]; 1.25 g/ha,10%
same,Post-emergence action against VERPE,[8]; 1.25 g/ha,100%
same,Post-emergence action against VERPE,[8]; 5 g/ha,100%
same,Post-emergence action against VERPE,[8]; 20 g/ha,100%
same,Post-emergence action against VIOTR,[9]; 1.25 g/ha,90%
same,Post-emergence action against VIOTR,[9]; 5 g/ha,100%
same,Post-emergence action against VIOTR,[9]; 20 g/ha,100%
same,Post-emergence action against POLCO in %,[10]; dosage 5 g/ha,100%
same,Post-emergence action against POLCO in %,[10]; dosage 20 g/ha,100%
same,Post-emergence action at 1.25 g/ha against AMARE in %,[11],100%
same,Post-emergence action at 5 g/ha against AMARE in %,[11],100%
same,Post-emergence action at 20 g/ha against AMARE in %,[11],100%
same,Post-emergence action against PHBPU in %,[12]; dosage 1.25 g/ha,90%
same,Post-emergence action against PHBPU in %,[12]; dosage 5 g/ha,90%
same,Post-emergence action against PHBPU in %,[12]; dosage 20 g/ha,100%
same,Post-emergence action at 1.25 g/ha against ABUTH in %,[13]; 1.25 g/ha,80%
same,Post-emergence action at 5 g/ha against ABUTH in %,[13],100%
same,Post-emergence action at 20 g/ha against ABUTH in %,[13],100%
Cn1c(C(F)(F)F)cc(=O)n(-c2cc(Oc3ccccc3OCC(=O)OCC[N+](=O)[O-])c([N+](=O)[O-])cc2F)c1=O [I.6-183],Post-emergence action against ORYSA (crop plant compatibility),[1]; 1.25 g/ha,0%
same,Post-emergence action against ORYSA (crop plant compatibility),[1]; 5 g/ha,0%
same,Post-emergence action against ORYSA in %,"[1]; 20 g/ha, crop plant compatibility",0%
same,Post-emergence action at 20 g/ha against ALOMY in %,[2],90%
same,Post-emergence action against SETVI,[3],100%
same,Post-emergence action against SETVI in %,[3]; dosage 5 g/ha,100%
same,Post-emergence action against ECHCG in %,[4]; dosage 20 g/ha,80%
same,Post-emergence action against MATIN in %,[5]; dosage 5 g/ha,80%
same,Post-emergence action against MATIN in %,[5]; dosage 20 g/ha,100%
same,Post-emergence action against ZEAMX (crop plant compatibility),[6]; 1.25 g/ha,20%
same,Post-emergence action against ZEAMX (crop plant compatibility),[6]; 5 g/ha,20%
same,Post-emergence action against TRZAS (crop plant compatibility),[7]; 1.25 g/ha,0%
same,Post-emergence action against TRZAS (crop plant compatibility),[7]; 5 g/ha,20%
same,Post-emergence action against VERPE,[8]; 5 g/ha,100%
same,Post-emergence action against VERPE,[8]; 20 g/ha,100%
same,Post-emergence action against VIOTR,[9]; 1.25 g/ha,90%
same,Post-emergence action against VIOTR,[9]; 5 g/ha,100%
same,Post-emergence action against VIOTR,[9]; 20 g/ha,100%
same,Post-emergence action against POLCO in %,[10]; dosage 20 g/ha,100%
same,Post-emergence action at 1.25 g/ha against AMARE in %,[11],100%
same,Post-emergence action at 5 g/ha against AMARE in %,[11],100%
same,Post-emergence action at 20 g/ha against AMARE in %,[11],100%
same,Post-emergence action against PHBPU in %,[12]; dosage 1.25 g/ha,100%
same,Post-emergence action against PHBPU in %,[12]; dosage 5 g/ha,100%
same,Post-emergence action against PHBPU in %,[12]; dosage 20 g/ha,100%
same,Post-emergence action at 5 g/ha against ABUTH in %,[13],100%
same,Post-emergence action at 20 g/ha against ABUTH in %,[13],100%
